From publication PMC4255642 (Biochemistry, 2014)

Experiments:
[1] = test system: wild-type and mutant membrane-bound F1Fo ATP synthase; format: biochemical; details: wild type and six mutants; 150 μM NBD-Cl 1 h, then 4 mM DTT 1 h
[2] = test system: F1Fo-bound membranes; assay: Control: protecting ligand without added NBD-Cl, ATPase activity; format: biochemical, Escherichia coli; details: MgADP up to 10 mM, Pi up to 50 mM
[3] = biological target: βR182A mutant membrane-bound F1Fo ATP synthase (Escherichia coli, UniProt P0ABB0+P0ABB4, R183A/Y332W); format: biochemical; details: sodium azide 30 min preincubation
[4] = biological target: αT349R mutant membrane-bound F1Fo ATP synthase (Escherichia coli, UniProt P0ABB0+P0ABB4, T349R/Y332W); format: biochemical; details: sodium azide 30 min preincubation
[5] = biological target: αT349R/βR182A double mutant membrane-bound F1Fo ATP synthase (Escherichia coli, UniProt P0ABB0+P0ABB4, R183A/T349R/Y332W); format: biochemical; details: sodium azide 30 min preincubation
[6] = biological target: αT349D mutant membrane-bound F1Fo ATP synthase (Escherichia coli, UniProt P0ABB0+P0ABB4, T349D/Y332W); format: biochemical; details: sodium azide 30 min preincubation
[7] = biological target: αT349Q mutant membrane-bound F1Fo ATP synthase (Escherichia coli, UniProt P0ABB0+P0ABB4, T349Q/Y332W); format: biochemical; details: sodium azide 30 min preincubation
[8] = biological target: αT349A mutant membrane-bound F1Fo ATP synthase (Escherichia coli, UniProt P0ABB0+P0ABB4, T349A/Y332W); format: biochemical; details: sodium azide 30 min preincubation

O[C@@H](CS)[C@@H](O)CS (racemic) [DTT, dithiothreitol]
reversal of NBD-Cl inactivation of ATPase activity by DTT [1]: completely restored full activity in all cases

Nc1ncnc2c1ncn2[C@@H]1O[C@H](COP(=O)([O-])OP(=O)([O-])O)[C@@H](O)[C@H]1O.[Mg+2] [MgADP]
inhibitory effect of ligand alone on ATPase activity [2]: Neither MgADP (up to 10 mM) nor Pi (up to 50 mM) had any inhibitory effect alone

O=P(O)(O)O [Pi, inorganic phosphate]
inhibitory effect of ligand alone on ATPase activity [2]: Neither MgADP (up to 10 mM) nor Pi (up to 50 mM) had any inhibitory effect alone

[N-]=[N+]=[N-].[Na+] [azide, sodium azide]
residual ATPase activity with azide [3]: ~72% | residual ATPase activity with azide [4]: ~40% | residual ATPase activity with azide [5]: ~21% | residual ATPase activity with azide [6]: ~90% | residual ATPase activity with azide [7]: ~90% | residual ATPase activity with azide [8]: ~53%
